One data set addresses T1, Aurora-A (Homo sapiens, UniProt O14965).
T1 construct: host or cells: Sf9 insect cells (baculovirus)
T1 sequence (O14965 1-403): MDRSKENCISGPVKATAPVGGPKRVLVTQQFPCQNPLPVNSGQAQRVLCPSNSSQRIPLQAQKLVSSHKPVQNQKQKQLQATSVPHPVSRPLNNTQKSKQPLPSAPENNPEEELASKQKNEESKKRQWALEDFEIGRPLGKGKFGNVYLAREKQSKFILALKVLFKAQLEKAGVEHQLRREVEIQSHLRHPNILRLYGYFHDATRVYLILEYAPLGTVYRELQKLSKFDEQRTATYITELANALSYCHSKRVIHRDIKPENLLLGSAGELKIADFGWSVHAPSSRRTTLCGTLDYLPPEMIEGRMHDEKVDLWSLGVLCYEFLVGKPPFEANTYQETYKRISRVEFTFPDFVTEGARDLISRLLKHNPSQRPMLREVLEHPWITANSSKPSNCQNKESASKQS
Briefly: Radiometric protein kinase assay, Aurora-A. It counts as biochemical. To be noted: 1 μM ATP; read-out: Inhibitory activity (IC50:μM) Aurora-A. The source says: (§1) All protein kinases were expressed in Sf9 insect cells as human recombinant GST-fusion proteins or His-tagged proteins by means of the baculovirus expression system. Kinases were purified by affinity chromatography using either GSH-agarose (Sigma) or Ni-NTH-agarose (Qiagen). The purity of each kinase was checked by SDS-PAGE/silver staining and the identity of each kinase was verified by western blot analysis with kinase specific antibodies or by mass spectroscopy.
(§2) A radiometric protein kinase assay (^33PanQinase® Activity Assay) was used for measuring the kinase activity of the 24 protein kinases. All kinase assays were performed in 96-well FlashPlates™ from Perkin Elmer (Boston, Mass., USA) in a 50 μl reaction volume. The reaction cocktail was pipetted in 4 steps in the following order: • 20 μl of assay buffer • 5 μl of ATP solution (in H2O) • 5 μl of test compound (in 10% DMSO) • 10 μl of substrate/10 […] of enzyme solution (premixed)
(§3) The assay for all enzymes contained 60 mM HEPES-NaOH, pH 7.5, 3 mM MgCl2, 3 mM MnCl2, 3 μM Na-orthovanadate, 1.2 mM DTT, 50 μg/ml PEG20000, 1 μM [γ-^33P]-ATP (approx. 5×10^05 cpm per well).
(§4) For the 24 kinase assays, the following amounts of enzyme and substrate were used per well:
(§5) The reaction cocktails were incubated at 30° C. for 80 minutes. The reaction was stopped with 50 μl of 2% (v/v) H3PO4, plates were aspirated and washed two times with 200 μl of 0.9% (w/v) NaCl or 200 μl H2O. Incorporation of ^33Pi was determined with a microplate scintillation counter (Microbeta Trilux, Wallac).
(§6) The median value of the counts in column 1 (n=8) of each assay plate was defined as “low control”. This value reflects unspecific binding of radioactivity to the plate in the absence of a protein kinase but in the presence of the substrate. The median value of the counts in column 7 of each assay plate (n=8) was taken as the “high control”, i.e. full activity in the absence of any inhibitor. The difference between high and low control was taken as 100% activity.
(§7) As part of the data evaluation the low control value from a particular plate was subtracted from the high control value as well as from all 80 “compound values” of the corresponding plate. The residual activity (in %) for each well of a particular plate was calculated by using the following formula: Res. Activity (%)=100×[(cpm of compound−low control)/(high control−low control)]
(§8) The residual activities for each concentration and the compound IC50 values were calculated using Quattro Workflow V2.1.0.0 (Quattro Research GmbH, Munich, Germany; www.quattro-research.com). The model used was “Sigmoidal response (variable slope)” with parameters “top” fixed at 100% and “bottom” at 0%.

In data set [1] the target is T2, HSP90 (Homo sapiens, UniProt P07900). Description: HSP90 affinity, competition assay with geldanamycin. It counts as binding.
A further data set deals with panel of 24 kinase. Briefly: Radiometric protein kinase assay (33PanQinase), panel of 24 kinases. It counts as biochemical, human. To be noted: for inhibition in a panel of 24 kinase: at 10 μM.
Source text: as §1
A radiometric protein kinase assay (^33PanQinase® Activity Assay) was used for measuring the kinase activity of the 24 protein kinases.
as §3, §5, §6, §7

For data set [2], the target named is T2, HSP90. To be noted: reported; read-out: inhibitor of HSP90; cited from earlier work.
For another data set, the system named is HCC1954 tumor cells. Description: Cytotoxicity, MTS assay, HCC1954. It counts as cell-based. To be noted: Homo sapiens, 72 hours. How it is done:
(§9) Tumor cells were grown as adherent monolayers at 37° C. in a humidified atmosphere (5% CO2, 95% air). The culture medium was RPMI 1640 containing 2 mM L-glutamine (Ref BE12-702F, Cambrex, Verviers, Belgium) and supplemented with 10% fetal bovine serum (Ref DE14-801E, Cambrex). For experimental use, the adherent tumour cells were detached from the culture flask by a 5-minute treatment with trypsin-versene (Ref O2-007E, Cambrex), diluted in Hanks' medium without calcium or magnesium (Ref BE10-543F, Cambrex) and neutralized by addition of complete culture medium. Before use, cells were counted in a hemocytometer and their viability were assessed by 0.25% trypan blue exclusion. Mycoplasma detection was performed using the MycoAlert® Mycoplasma Detection Kit (Ref LT07-318, Cambrex) in accordance with the manufacturer instructions. The MycoAlert®Assay is a selective biochemical test that exploits the activity of mycoplasmal enzymes. The viable mycoplasma are lysed and the enzymes react with the MycoAlert® substrate catalyzing the conversion of ADP to ATP. By measuring the level of ATP in a sample both before and after the addition of the MycoAlert® substrate a ratio can be obtained which is indicative of the presence or absence of mycoplasma. The mycoplasma test was assayed in duplicate from the culture supernatants of the cell lines and compared to negative and positive controls (MycoAlert® Assay Control Set, Ref LT07-518, Cambrex) (Internal Standard Operating Procedure No TEC-007/002). Both HCC1954 and SK-BR-3 tumour cells (5,000 cells per well) were plated in 96-well flat-bottom microtitration plates (Ref 167008, Nunc, Dutscher, Brumath, France) and incubated at 37° C. for 24 hours before treatment in 190 μl of drug-free culture medium supplemented with 10% FBS. Both HCC1954 and SK-BR-3 tumour cell lines were incubated for 72 hours with […], in ¼ dilution steps, of the test substances (ranging from […]) to be tested as well as paclitaxel (ranging from 10^−7 to 10^−12 M). The cells (190 μl) will be incubated in a 200 μl final volume of culture medium supplemented with 10% FBS containing test substances at 37° C. under 5% CO2. One experiment is performed, each concentration being issued from quadruplicate. Control cells are treated with corresponding vehicle alone. At the end of treatments, the cytotoxic activity is evaluated by a MTS assay. […] Like MTT, MTS is bioreduced by cells into a formazan product that is directly soluble in culture medium without processing, unlike MTT.
(§10) At the end of the cells treatment, 40 μl of a 0.22 μm filtered freshly combined solution of MTS (20 ml at 2 mg/ml, Ref G1111A, Promega, Charbonnières, France) and PMS (1 ml at 0.92 mg/ml, Ref P9625, Sigma) in Dulbecco's Phosphate Buffered Saline (DPBS, Ref 17-513F, Cambrex), were added in each well. Culture plates were incubated for 2 h at 37° C. Absorbency (OD) will be measured at 490 nm in each well using VICTOR^3™ 1420 multilabeled counter (Wallac, PerkinElmer, Courtaboeuf, France).

The next data set relates to SK-BR-3 tumor cells. Description: Cytotoxicity, MTS assay, SK-BR-3. It counts as cell-based. To be noted: Homo sapiens, 72 hours. The protocol: as §9, §10
For another data set, the system named is ErbB2. Description: Degradation of HSP90 client protein ErbB2 in SK-BR3, Western blotting. It counts as cell-based. To be noted: Homo sapiens; for EC50: read-out: EC50, degradation of ErbB2. The source says:
Thus, after 18 hrs treatment with the compounds, the whole cell protein lysates were obtained, protein concentrations were normalized and the concentration of ErbB2 was quantified by Western blotting (C. Chavany et al J. Biol. Chem. 271:4974-4977 (1996)).

In the next data set the test system is HER-2. To be noted: HER-2 degradation assay; cited from earlier work.
In a further data set the target is T3, VEGF-R2 (Homo sapiens, UniProt P35968).
T3 construct: host or cells: Sf9 insect cells (baculovirus)
T3 sequence (P35968 20-1356): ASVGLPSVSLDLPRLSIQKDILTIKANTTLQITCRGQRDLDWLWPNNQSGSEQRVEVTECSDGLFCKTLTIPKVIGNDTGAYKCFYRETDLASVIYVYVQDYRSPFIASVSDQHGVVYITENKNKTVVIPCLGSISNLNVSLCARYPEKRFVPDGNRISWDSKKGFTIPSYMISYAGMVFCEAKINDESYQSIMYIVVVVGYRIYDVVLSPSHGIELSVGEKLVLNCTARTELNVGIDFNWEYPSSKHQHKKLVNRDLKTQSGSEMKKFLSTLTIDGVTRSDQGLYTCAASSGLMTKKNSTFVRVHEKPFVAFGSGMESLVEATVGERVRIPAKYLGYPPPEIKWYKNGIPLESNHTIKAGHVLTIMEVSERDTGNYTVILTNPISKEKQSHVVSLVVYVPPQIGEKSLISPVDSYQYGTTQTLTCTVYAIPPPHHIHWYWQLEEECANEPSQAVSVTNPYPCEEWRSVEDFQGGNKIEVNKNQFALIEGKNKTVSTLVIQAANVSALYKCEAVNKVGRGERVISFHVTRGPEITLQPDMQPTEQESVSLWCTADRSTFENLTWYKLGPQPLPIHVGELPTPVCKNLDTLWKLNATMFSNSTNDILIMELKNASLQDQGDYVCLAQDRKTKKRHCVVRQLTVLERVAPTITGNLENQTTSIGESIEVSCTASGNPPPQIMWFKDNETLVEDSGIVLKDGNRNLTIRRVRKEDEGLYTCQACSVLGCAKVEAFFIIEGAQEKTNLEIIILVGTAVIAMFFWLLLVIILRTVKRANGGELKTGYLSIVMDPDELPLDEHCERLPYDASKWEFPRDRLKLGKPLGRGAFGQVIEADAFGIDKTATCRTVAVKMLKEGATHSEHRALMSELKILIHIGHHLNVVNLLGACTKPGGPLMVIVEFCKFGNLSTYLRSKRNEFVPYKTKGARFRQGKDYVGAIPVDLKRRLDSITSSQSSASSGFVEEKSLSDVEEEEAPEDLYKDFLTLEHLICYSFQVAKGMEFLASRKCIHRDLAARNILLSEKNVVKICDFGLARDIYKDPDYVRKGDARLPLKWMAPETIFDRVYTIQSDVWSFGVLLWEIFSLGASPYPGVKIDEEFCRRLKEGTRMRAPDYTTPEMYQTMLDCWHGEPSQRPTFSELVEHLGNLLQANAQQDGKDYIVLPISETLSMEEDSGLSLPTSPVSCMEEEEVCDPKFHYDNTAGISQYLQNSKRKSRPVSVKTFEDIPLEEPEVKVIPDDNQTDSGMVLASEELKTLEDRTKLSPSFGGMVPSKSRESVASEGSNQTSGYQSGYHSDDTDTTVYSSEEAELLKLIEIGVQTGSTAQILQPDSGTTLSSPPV
Briefly: Radiometric protein kinase assay, VEGF-R2. It counts as biochemical. To be noted: 1 μM ATP; read-out: Inhibitory activity (IC50:μM) VEGF-R2.
Source text: as §1, §2, §3, §4, §5, §6, §7, §8

A further data set relates to tumor xenograft models. To be noted: in vivo; cited from earlier work.
The conditions of data set [3]: cited from earlier work.
In a further data set the test system is HCC1954 cells. Briefly: Antitumor activity, HCC1954 induced tumors in CB17/SCID mice. It counts as in vivo. How it is done:
The compounds of the invention were evaluated for antitumor activity in mice. Tumors were induced […] in healthy CB17/SCID mice by injecting HCC1954 cells into the right flank of 70 mice. Once the induced tumors were an average size of […], the mice were treated with compound a2-1 at 25 mg/kg, 50 mg/kg and 100 mg/kg. Controls of vehicle alone and Herceptin® at 10 mg/kg were utilized.

A short description of data set [4]: Maximum tolerated dose in healthy CB17/SCID mice. It counts as in vivo. The protocol:
Three healthy CB17/SCID mice were treated with compound 2a-1 at 25 mg/kg, 50 mg/kg and 100 mg/kg once daily for five consecutive days.

Read-outs that look alike come from different tables or passages of the source.

This is an account of results in patent US8450305B2, “Macrocyclic compounds useful as inhibitors of kinases and HSP90” (Universite de Strasbourg, priority 2006, dated 2013).

On to `O=C1Cc2c(Cl)c(O)cc(O)c2C(=O)O[C@H](c2ccccc2)C/C=C/CCC(Cl)C1` (some centres unmarked) [A3], for which, at Aurora-A, the IC50 came to 12 µM.

Consider `C[C@@H]1CC2O[C@@H]2CC/C=C/C(=O)Cc2c(Cl)c(O)cc(O)c2C(=O)O1` (some centres unmarked) [pochonin A], for which the IC50 at HSP90 [1] and on HSP90 [2] was 90 nM throughout. Also, the “inhibition in a panel of 24 kinase” value with panel of 24 kinase is given as “no significant activity”.

For the compound `O=C1OCC/C=C/CC/C=C/C(=N/OCC(=O)N2CCCCC2)Cc2cc(O)cc(O)c21` [2a-13], the EC50 with HCC1954 tumor cells turned out to be 220 nM; in the data set on SK-BR-3 tumor cells it was 120 nM; with ErbB2 (SK-BR-3, 18 h), 12 nM.

Take `CCCCn1c(Cc2cc(OC)c(OC)c(OC)c2)nc2c(N)ncnc21` [PU3]: the IC50 in the data set on HER-2 was 40000 nM.

Regarding `C[C@@H]1C[C@H]2O[C@@H]2/C=C\C=C\C(=O)Cc2c(Cl)c(O)cc(O)c2C(=O)O1` [Radicicol, radicicol], the “IC50 in panel of 24 kinase assays (blank cells; summary in words)” value in the data set on panel of 24 kinase (a blank represents an IC50 > 50 μM) is on record as “no inhibition”. The “inhibition in a panel of 24 kinase” value with panel of 24 kinase is on record as “no significant activity”. Besides, the IC50 at VEGF-R2 turned out to be 49 µM; in the data set on ErbB2 (SK-BR-3, 18 h, read-out: IC50, degradation of ErbB2), 289 nM. In addition, the “activity in tumor xenograft models” value in the data set on tumor xenograft models was “inactive”. In addition, in [3], the water solubility result is reported as “poorly water-soluble”.

Consider `O=C1OCC/C=C/CC/C=C/C(=N/OCC(=O)N2CCCCC2)Cc2c(Cl)c(O)cc(O)c21` [2a-1], for which the EC50 in the data set on HCC1954 tumor cells is 320 nM; in the data set on SK-BR-3 tumor cells, 125 nM; in the data set with ErbB2 (SK-BR-3, SK-BR3, 18 hrs treatment, Western blotting) it was 26 nM. Besides, the tumor size result in the data set with HCC1954 cells (25 mg/kg, 50 mg/kg and 100 mg/kg) is listed as “dose-dependent reduction in tumor size”. Further, the “tumor size compared with Herceptin® at 10 mg/kg” value in the data set on HCC1954 cells (even at the 25 mg/kg dose for three weeks) is “superior to those obtained in mice treated with Herceptin®”. Also, the “re-growth of tumor after the last treatment” value with HCC1954 cells (mouse, in vivo) is listed as “did not occur for three to seven days”. For the same compound, the weight loss result in data set [4] (25 mg/kg once daily for five consecutive days) is “did not show any weight loss”. Besides, the body weight loss entry is “slight, but acceptable body weight loss” in [4] (50 mg/kg once daily for five consecutive days) and “slight, but acceptable body weight loss” in [4] (100 mg/kg once daily for five consecutive days).
